What was measured:
[1] = system: Marchantia polymorpha L. photomixotrophic cells; assay: TTC high throughput screening of cell growth in microwell plate; assay type: cell-based; details: for growth inhibition activities (IC50) to Marchantia polymorpha L. photomixotrophic cells: TTC analysis; for effect of natural compounds on cell growth, in words: 1 ppm
[2] = system: Oryza sativa L. cv (Taebaegbyeo) heterotrophic cells; assay: TTC analysis of growth inhibition, rice heterotrophic cells; assay type: cell-based; details: for growth inhibition activities (IC50) to Oryza sativa L. cv (Taebaegbyeo) heterotrophic cells: TTC analysis; for growth inhibiting activity to non-photomixotrophic (heterotrophic) cells, in words: 10 ppm
Experimental: (§1) Other culture conditions were same as those for Marchantia polymorpha L. photomixotrophic cell culture. The investigation procedure of cell viability in a 96 microwell plate of the present invention is precisely explained as follows. 1) Treating 150 μl of TTC solution into each well wherein cells are being cultured. 2) Five hours after treating TTC, removing the solution in wells with a 8-channel multi-pipette. 3) Adding 150 μl of 95% ethanol to the remaining cells of each well, and then reacting thereof at 60° C. for 1 hour. 4) After reaction finished, transferring the reacting solution into a new 96 well plate. 5) Measuring the optical density of the well plate at 490 nm wave length with a high throughput screening (HTS) reader. The explained method of the present invention is called high throughput screening. […] Oryza sativa L. cv (Taebaegbyeo) heterotrophic cells used in this experiment were developed from premature embryo (Korean J Plant Tissue Culture, 18: 209-214, 1991).

[3] = system: Nicotiana tabacum cv. (BY4) photomixotrophic cells; assay: TTC analysis of growth inhibition, tobacco photomixotrophic cells; assay type: cell-based
Experimental: as §1, with “As Nicotiana tabacum cv. (BY4) photomixotrophic cells, the cells developed as NaCl resistance cells by Cha et al. (Cha et al., Korean J Bot, -36: 113-120, 1993) were used. For the” for “Other”, “of the above cells, MS minimal medium where 0.7 mg/l of 2,4-D and 0.03 mg/l of kinetin” for “conditions”, “added was used. 2 g of Nicotiana tabacum cv. […] The cells were sub-cultured at intervals of 14 days.” for “same as those for Marchantia polymorpha L. photomixotrophic cell culture.”

Lemna paucicostata = Lemna paucicostata growth inhibition in 24 well plate; details: for inhibition at 31 ppm: Lemna aequinoctialis, 120 h, read-out: Lemna paucicostata (% activity)
[4] = Marchantia polymorpha, natural compounds, final concentration 1 ppm, + inhibiting, − promoting

SMILES	growth inhibition activities (IC50) to Marchantia polymorpha L. photomixotrophic cells ([1]; 96 well plate) [ppm]	growth inhibition activities (IC50) to Oryza sativa L. cv (Taebaegbyeo) heterotrophic cells [2] [ppm]	growth inhibition activities (IC50) to Nicotiana tabacum cv. (BY4) photomixotrophic cells [3] [ppm]	inhibition at 1 ppm [1, 4] [%]	inhibition at 31 ppm (Lemna paucicostata) [%]	other results
COCC(=O)OC(c1ncccc1S(=O)(=O)NC(=O)Nc1nc(OC)cc(OC)n1)C(C)F (stereo not shown) [LGC-42153]	0.0011	1.793	0.0022	–	–	–
COc1cc(C(=O)O)ccc1O [Vanillic acid]	–	–	–	10	10	–
O=c1ccc2ccc(O)cc2o1 [Umbelliferone]	–	–	–	6	40	–
CSC(=O)c1c(C(F)F)nc(C(F)(F)F)c(C(=O)SC)c1CC(C)C [Dithiopyr]	0.048	0.613	0.141	–	–	–
O=C(O)c1cc(O)ccc1O [Gentistic acid]	–	–	–	–	–	Marchantia polymorpha L. photomixotrophic cells (% activity) ([1]; natural compounds, final concentration 1 ppm, + inhibiting, − promoting): 9%; Lemna paucicostata (% activity) (Lemna paucicostata; final concentration 31 ppm, 5 days after treating): 0%
CCOC(=O)[C@@H](C)Oc1ccc(Oc2nc3ccc(Cl)cc3o2)cc1 [Phenoxapro-P-ethyl]	0.70	6.47	4.58	–	–	–
O=C(O)/C=C/c1ccc(O)c(O)c1 [Caffeic acid]	–	–	–	21	30	–
COc1cc(C(=O)O)cc(OC)c1O [Syringic acid]	–	–	–	16	0	–
CC(Oc1ccc2ccccc2c1)C(=O)Nc1ccccc1 (stereo not shown) [Naproanilide]	0.054	6.69	0.0019	–	–	–
CCNc1nc(Cl)nc(NC(C)C)n1 [Atrazine]	0.21	>10	0.18	–	–	intracellular formazan content ([1]; 12 well plate, different concentrations, 1 and 5 hours after TTC): decreased dose-dependently; content that can inhibit cell growth upto about 50% ([1]; 96 well plate, TTC 5 hours): 0.18 ppm; IC50 ([1]; Marchantia polymorpha, 96 well plate, TTC 5 hours, read-out: content that can inhibit cell growth upto about 50%): 680 nM; growth inhibiting activity to non-photomixotrophic (heterotrophic) cells, in words [2]: low growth inhibiting activity or almost none
COc1cc2ccc(=O)oc2cc1O [Scopoletin]	–	–	–	16	0	–
O=C(O)c1cc(O)c(O)c(O)c1 [Gallic acid]	–	–	–	8	0	–
O=C(O)/C=C/c1ccccc1O [o-Coumaric acid]	–	–	–	32	30	–
O=C(O)c1ccccc1 [Benzoic acid]	–	–	–	–	10	–
COc1cc(Oc2ccc(Cl)cc2Cl)ccc1[N+](=O)[O-] [Chloromethoxynil]	0.076	>10	0.193	–	–	growth inhibiting activity to non-photomixotrophic (heterotrophic) cells, in words [2]: low growth inhibiting activity or almost none
O=C1COc2ccccc21 [3-Coumaranone]	–	–	–	-18	0	effect of natural compounds on cell growth, in words [1]: growth promoting activity
CCC(=O)Nc1ccc(Cl)c(Cl)c1 [Propanil]	0.037	8.49	5.83	–	–	–
CC(C)C1(C)N=C(c2ncccc2C(=O)O)NC1=O (stereo not shown) [Amazapyr]	0.35	0.269	0.018	–	–	–
COc1cc(OC)nc(Oc2cccc(Oc3nc(OC)cc(OC)n3)c2C(=O)ON=C(c2ccccc2)c2ccccc2)n1 [Pyribenzoxim]	0.0092	7.83	0.0026	–	–	–
O=c1oc2ccccc2c(O)c1Cc1c(O)c2ccccc2oc1=O [Dicumarol]	–	–	–	-31	30	effect of natural compounds on cell growth, in words [1]: growth promoting activity
CC(C)Oc1cc(-n2nc(C(C)(C)C)oc2=O)c(Cl)cc1Cl [Oxadiazone]	0.03	6.88	0.39	–	–	–
CON(C)C(=O)Nc1ccc(Cl)c(Cl)c1 [Linurone]	0.244	7.07	>10	–	–	–
CCOC(=O)c1cnn(C)c1S(=O)(=O)NC(=O)Nc1nc(OC)cc(OC)n1 [Prazolsulfuron-ethyl]	0.0012	0.066	0.001	–	–	–
CCOC(=O)c1ccc(O)c(O)c1 [Protocatechuic acid ethyl ester]	–	–	–	22	70	–
O=C(O)/C=C/c1ccc(O)cc1 [p-Coumaric acid]	–	–	–	17	30	–
COc1cc(/C=C/C(=O)O)ccc1O [Ferulic acid]	–	–	–	-35	20	effect of natural compounds on cell growth, in words [1]: growth promoting activity
O=C(Nc1ccc(F)cc1F)c1cccnc1Oc1cccc(C(F)(F)F)c1 [Diflufenican]	0.031	>10	4.67	–	–	growth inhibiting activity to non-photomixotrophic (heterotrophic) cells, in words [2]: low growth inhibiting activity or almost none
Oc1ccc(O)cc1 [Hydroquinone]	–	–	–	15	0	–
O=c1ccc2ccccc2o1 [Coumarin]	–	–	–	33	80	–

Reference: patent US20050176584A1, “Mehtod for high throughput screening of plant growth regulator” (Korea Research Institute of Bioscience and Biotechnology, priority 2002, published 2005)
